Columns and labels:
[1] = Rat pharmacokinetic study, HM04 free base vs HM04 fumarate salt (Example 9); assay type: in vivo, male Sprague Dawley rats
[2] = Rat pharmacokinetic study, single oral HM04 fumarate salt 3, 10, 30 mg/kg (Example 10); assay type: in vivo, male Sprague Dawley rats; details: for concentration at 0.5 h: 0.50 hours
Protocol: (§1) The pharmacokinetics of HM04 in plasma after single oral administration of HM04 fumarate salt to 6-week old male Sprague Dawley rats and male Beagle dogs (1-5 years of age) was investigated. Test formulations of 0.6 mg/mL, 2 mg/mL, and 6 mg/mL HM04 fumarate salt (based on weight of the free base) were prepared in 5% glucose solution. Doses of 3, 10, and 30 mg/kg HM04 fumarate salt (based on weight of the free base) were administered by gastric gavage as a 5 mL/kg dose volume of each of the three test formulations. Four animals were in each dose group. The formulation was administered to the dogs in fasting conditions with food provided three hours post-dosing.
A comparison of the plasma concentration of HM04 (ng/mL) in rats over time is provided in FIG. 19 and a summary of the pharmacokinetic analysis is provided in Table 5, below. […] The standard deviation associated with the mean oral bioavailability was calculated according to the formula: SDq=[^2√{square root over ((my^2·SDx^2+mx^2−SDy^2))}]/my^2 where q=mean bioavailability; mx=oral dose-normalized mean AUC, and my=IV dose-normalized mean AUC.
(§2) Plasma HM04 concentrations were measured by LC-MS/MS following protein precipitation in the 96-well plate format. At the time of analysis samples were thawed out at ambient temperature. Aliquots of 25 μL of rat or dog K3EDTA plasma were spiked with 300 μL of internal standard (25 ng/mL of HM04-d8 in acetonitrile). After gentle vortex mixing for 5 minutes and centrifugation at 2010 g for 15 minutes at 4° C., an aliquot of 100 μL of the organic phase was transferred into a fresh 96-well polypropylene plate, using a P3-Evolution robotic system (Perkin Elmer). Following dilution with 100 μL of […] ammonium formate pH 3.5, an aliquot of 10 μL was injected into the LC-MS/MS system.

[3] = Dog pharmacokinetic study, HM04 free base vs HM04 fumarate salt (Example 9); assay type: in vivo, male Beagle dogs; details: for HM04 plasma concentration: 2 mg/kg oral, mean ± S.D., n=3
[4] = Dog pharmacokinetic study, single oral HM04 fumarate salt 3, 10, 30 mg/kg (Example 10); assay type: in vivo, male Beagle dogs
Protocol: as §1
Oral absolute bioavailability at 3 mg/kg was calculated from the ratio of individual oral AUC∞ to the individual AUC∞ values determined following intravenous administration of 3 mg/kg HM04 fumarate salt (based on weight of the free base) to the same four male Beagle dogs.
Oral absolute bioavailability at 10 mg/kg was calculated from the ratio of individual oral AUC∞ to the individual AUC∞ values determined following intravenous administration of 10 mg/kg HM04 fumarate salt (based on weight of the free base) to the same four male Beagle dogs.
as §2

[5] = male, Sprague Dawley, plasma, 3 mg/kg oral vs 3 mg/kg intravenous mean AUC
[6] = male, Sprague Dawley, plasma, 3 mg/kg oral, n=4
[7] = male, Sprague Dawley, plasma, 10 mg/kg oral, n=4
[8] = male, Sprague Dawley, plasma, 10 mg/kg oral, N = 3
[9] = male, Sprague Dawley, plasma, 30 mg/kg oral, n=4

CN1CCC(N(C)C(=O)N[C@H](c2ccc(-c3cnccn3)c(Cl)c2Cl)C(F)(F)F)CC1.O=C(O)/C=C/C(=O)O [HM04 fumarate salt, (R)-3-(1-(2,3-dichloro-4-(pyrazin-2-yl)phenyl)-2,2,2-trifluoroethyl)-1-methyl-1-(1-methylpiperidin-4-yl)urea fumarate salt]
HM04 plasma concentration ([1]; 3 mg/kg oral, 0.25 hours, mean ± S.D., n=3): 107.8 ± 27.8 ng/mL | HM04 plasma concentration ([1]; 3 mg/kg oral, 4 hours, mean ± S.D., n=3): 108.3 ± 38.3 ng/mL | AUC ([1]; male, Sprague Dawley, plasma, 3 mg/kg intravenous, three rats, read-out: mean AUC following intravenous administration): 2100 ± 358 ng·h/mL | bioavailability [1, 5]: 46.1 ± 6.99% | Cmax ([1]; male, Sprague Dawley, plasma, 3 mg/kg oral, mean ± S.D., n=3): 329 ± 185 ng/mL | HM04 plasma concentration ([2]; 3 mg/kg oral, 24 hours, n=4, LLOQ 5.0 ng/mL): BLQ | bioavailability [2, 5]: 43.3 ± 10.5% | concentration at 0.25 h [2, 6]: 34.7 ± 5.42 ng/mL | concentration at 0.5 h [2, 6]: 64.2 ± 35 ng/mL | concentration at 1 h [2, 6]: 82.4 ± 30.8 ng/mL | concentration at 2 h [2, 6]: 150 ± 53.5 ng/mL | concentration at 4 h [2, 6]: 116 ± 24 ng/mL | concentration at 8 h [2, 6]: 47 ± 10.9 ng/mL | half-life ([2]; male, Sprague Dawley, plasma, 3 mg/kg oral, N = 2): 2.82 h | AUC(0-t) [2, 6]: 762 ± 164 ng·h/mL | Cmax [2, 6]: 156 ± 47.3 ng/mL | Tmax [2, 6]: 3 ± 1.15 h | AUC ([2]; male, Sprague Dawley, plasma, 10 mg/kg intravenous, four rats, read-out: mean AUC following intravenous administration): 6170 ± 1770 ng·h/mL | bioavailability ([2]; male, Sprague Dawley, plasma, 10 mg/kg oral vs 10 mg/kg intravenous mean AUC): 54.4 ± 15.2% | concentration at 0.25 h [2, 7]: 150 ± 28.5 ng/mL | concentration at 0.5 h [2, 7]: 548 ± 603 ng/mL | concentration at 1 h [2, 7]: 456 ± 100 ng/mL | concentration at 2 h [2, 7]: 652 ± 62.1 ng/mL | concentration at 4 h [2, 7]: 387 ± 134 ng/mL | concentration at 8 h [2, 7]: 215 ± 97.3 ng/mL | concentration at 24 h ([2]; male, Sprague Dawley, plasma, 10 mg/kg oral, 24 hours, N = 1, three of four animals below level of quantification): 8.73 ± 17.5 ng/mL | AUC(0-t) [2, 8]: 3360 ± 685 ng·h/mL | half-life [2, 8]: 4.88 h | Cmax [2, 7]: 769 ± 458 ng/mL | Tmax [2, 7]: 1.38 ± 0.75 h | concentration at 0.25 h [2, 9]: 950 ± 465 ng/mL | concentration at 0.5 h [2, 9]: 1400 ± 961 ng/mL | concentration at 1 h [2, 9]: 2290 ± 537 ng/mL | concentration at 2 h [2, 9]: 2560 ± 530 ng/mL | concentration at 4 h [2, 9]: 2120 ± 422 ng/mL | concentration at 8 h [2, 9]: 1350 ± 179 ng/mL | concentration at 24 h ([2]; male, Sprague Dawley, plasma, 30 mg/kg oral, 24 hours, n=4): 14.6 ± 6.8 ng/mL | AUC(0-t) [2, 9]: 26200 ± 3970 ng·h/mL | Cmax [2, 9]: 2590 ± 524 ng/mL | Tmax [2, 9]: 1.75 ± 0.5 h | half-life [2, 9]: 2.65 ± 0.193 h | HM04 plasma concentration ([3]; 1 hour): 227.4 ± 52.2 ng/mL | HM04 plasma concentration ([3]; 4 hours): 152.9 ± 56.9 ng/mL | HM04 plasma concentration ([3]; 8 hours): 70.2 ± 41.0 ng/mL | HM04 plasma concentration ([3]; 24 hours): 13.1 ± 13.2 ng/mL | AUC ([3]; male, Beagle, plasma, 1 mg/kg intravenous, three dogs, read-out: mean AUC following intravenous administration): 1130 ± 364 ng·h/mL | clearance [4]: low clearance | oral bioavailability [4]: high | HM04 plasma concentration ([4]; 30 mg/kg oral, 0 hours (pre-dose), n=4, LLOQ 2.5 ng/mL): BLQ | bioavailability ([4]; male, Beagle, plasma, 3 mg/kg oral vs 3 mg/kg intravenous, individual AUC∞ ratios): 55.6 ± 18.8% | concentration at 0 h ([4]; male, Beagle, plasma, 3 mg/kg oral, 0 hours (pre-dose), n=4): 5.34 ± 3.83 ng/mL | concentration at 0.25 h ([4]; male, Beagle, plasma, 3 mg/kg oral, 0.25 hours, n=4): 66 ± 26.8 ng/mL | concentration at 0.5 h ([4]; male, Beagle, plasma, 3 mg/kg oral, 0.50 hours, n=4): 360 ± 238 ng/mL | concentration at 1 h ([4]; male, Beagle, plasma, 3 mg/kg oral, 1 hour, n=4): 300 ± 127 ng/mL | concentration at 2 h ([4]; male, Beagle, plasma, 3 mg/kg oral, 2 hours, N = 3 (Dog 3 excluded as outlier)): 287 ± 158 ng/mL | concentration at 4 h ([4]; male, Beagle, plasma, 3 mg/kg oral, 4 hours, n=4): 185 ± 115 ng/mL | concentration at 8 h ([4]; male, Beagle, plasma, 3 mg/kg oral, 8 hours, n=4): 95.6 ± 83.3 ng/mL

Reference: patent US11299472B2, “Fumarate salt of (R)-3-(1-(2,3-dichloro-4-(pyrazin-2-yl)phenyl)-2,2,2- trifluoroethyl)-1-methyl-1-(1-methylpiperidin-4-yl) urea, methods of preparation, and uses thereof” (Helsinn Healthcare SA, priority 2017, dated 2022)
